Calls of active or inactive are those of the source. No cut-off for these calls is given here.

The target of assay [1] is T1, Monoglyceride lipase (Rattus norvegicus) (UniProt Q8R431).
T1 sequence (whole entry): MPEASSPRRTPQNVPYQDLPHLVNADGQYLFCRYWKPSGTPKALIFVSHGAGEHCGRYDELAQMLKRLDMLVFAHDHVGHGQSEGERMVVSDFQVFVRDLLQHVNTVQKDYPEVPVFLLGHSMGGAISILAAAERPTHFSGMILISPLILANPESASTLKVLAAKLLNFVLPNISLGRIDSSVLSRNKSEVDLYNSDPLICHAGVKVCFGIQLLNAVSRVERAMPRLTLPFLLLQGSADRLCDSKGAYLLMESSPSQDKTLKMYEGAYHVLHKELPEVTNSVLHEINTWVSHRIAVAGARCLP
As to the kind of experiment: Inhibition of Sprague-Dawley rat MGL at 100 uM.

Assay [2] addresses T2, Fatty-acid amide hydrolase 1 (Rattus norvegicus) (UniProt P97612).
T2 sequence (whole entry): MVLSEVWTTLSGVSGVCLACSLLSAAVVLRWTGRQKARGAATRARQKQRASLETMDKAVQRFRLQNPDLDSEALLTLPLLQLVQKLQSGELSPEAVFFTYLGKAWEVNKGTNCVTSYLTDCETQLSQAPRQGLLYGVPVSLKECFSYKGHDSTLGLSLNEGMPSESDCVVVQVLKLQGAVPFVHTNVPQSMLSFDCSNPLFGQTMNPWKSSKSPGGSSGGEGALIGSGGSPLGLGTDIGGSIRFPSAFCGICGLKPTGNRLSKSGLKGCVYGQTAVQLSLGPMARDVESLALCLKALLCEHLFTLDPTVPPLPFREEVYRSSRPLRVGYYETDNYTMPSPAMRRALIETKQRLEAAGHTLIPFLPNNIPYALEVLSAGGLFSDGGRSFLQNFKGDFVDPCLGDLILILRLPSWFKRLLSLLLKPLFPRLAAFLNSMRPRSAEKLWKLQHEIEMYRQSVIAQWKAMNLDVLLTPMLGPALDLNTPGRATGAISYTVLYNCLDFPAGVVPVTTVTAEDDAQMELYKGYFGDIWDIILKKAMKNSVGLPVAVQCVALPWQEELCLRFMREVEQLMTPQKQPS
Nature of the assay: Inhibition of Sprague-Dawley rat FAAH at 100 uM.

In the next assay the target is T3, Monoglyceride lipase (Rattus norvegicus, UniProt Q8R431).
T3 sequence (Q8R431 whole entry): T1 sequence (whole entry)
As to the kind of experiment: Inhibition of Sprague-Dawley rat MGL.

Assay [3] relates to Rattus norvegicus. Nature of the assay: Antiinflammatory activity against carrageenan-induced foot paw edema in rat. It counts as functional. A general note: Carrageenan injected into the paw causes an acute inflammation.
For assay [4], the system named is Rattus norvegicus. As to the kind of experiment: Analgesic activity in rat assessed as inhibition of acetic acid-induced writhing responses at 3.6 mg/kg, ip. It counts as functional, organism-based. Also noted: dose 3.6 mg/kg. For orientation: In writhing tests, fewer writhes than in controls are read as antinociception.
Assay [5] deals with Rattus norvegicus. As to the kind of experiment: Antiinflammatory activity against carrageenan-induced foot paw edema in rat at 0.01 mmol/kg, ip. It counts as functional.
The subject of assay [6] is Rattus norvegicus. Nature of the assay: Analgesic activity in rat assessed as inhibition of acetic acid-induced writhing responses at 36 mg/kg, ip. It counts as functional, organism-based. Also noted: dose 36 mg/kg.

Take `CCCCCCCCCCCCCCC(=O)C(=O)NCCO`: the inhibition – broadly, the share of the control response that was lost under treatment – in assay [1] was determined as 27.5%; in assay [2] it was 23.8%.
For the molecule `CCCCCCCCCCCCCCC(N)CN` (stereo not given), on Monoglyceride lipase, the affinity corresponds to a Ki of 58.7 µM. Also, the inhibition worked out at 30.3% in assay [1] and 31.2% in assay [2].
For `CCCCCCCC/C=C\CCCCCC[C@H](N)CN`, at Monoglyceride lipase, the affinity, expressed as Ki, was 21.8 µM. Besides, the figures for the inhibition in assay [1] and in assay [2] were 49.9% and 4.9%, respectively. Besides, the ED50 (as a rule, the midpoint of the dose-response relation) in the assay with Rattus norvegicus [3] came to 10 µmol/kg. Besides, the outcome in the assay with Rattus norvegicus [4] was Active.
For `CCCCCCCCCCCCCC[C@H](N)CO`, the inhibition in assay [1] was 31.5%; in assay [2], 33.6%.
For the molecule `COc1ccc2c(c1)c(CC(=O)O)c(C)n2C(=O)c1ccc(Cl)cc1` [INDOMETHACIN], the inhibition in vivo – broadly, the percentage by which the read-out fell short of the control – at 10 µmol/kg with Rattus norvegicus [5] amounted to 47%.
With `CCCCCCCC/C=C\CCCCCC[C@@H](N)CN`, the result in the assay with Rattus norvegicus [6] was Active. On Monoglyceride lipase, the Ki (commonly the dissociation constant of the complex between target and ligand, obtained from inhibition or displacement) was 39 µM. The inhibition in assay [1] amounted to 42.2%; in assay [2], 25.9%.
Regarding `CCCCCCCCCCCCCC[C@@H](N)CO`, the inhibition in assay [1] worked out at 30%; in assay [2] it was 31.3%.
In the same order, the values of `NC[C@@H](N)CCCCc1ccccc1` are 0% and 0%.
Take `CCCCCCCC/C=C\CCCCCC[C@@H](N)C(N)=O`: the figures for the inhibition in assay [1] and in assay [2] were 0% and 24%, respectively.
For `CCCCCCOc1ccc(CCCC[C@H](N)CN)cc1`, the inhibition in assay [1] turned out to be 25.9%; in assay [2], 30.9%.

The record behind these values is ChEMBL document CHEMBL1142467, “A novel monoacylglycerol lipase inhibitor with analgesic and anti-inflammatory activity” (Bioorg Med Chem Lett, 2008).
